Results: PMC10938783, “A novel pan-PI3K inhibitor KTC1101 synergizes with anti-PD-1 therapy by targeting tumor suppression and immune activation” (Molecular Cancer, 2024)

System: B16 cells gene expression
Test: RNA-Seq (DEGs, GSEA, heatmaps) of B16 cells
Details: for NES / enrichmentScore: KTC 0.2μM
[1] = B16 cells, GSEA gene set HALLMARK_ADIPOGENESIS
[2] = B16 cells, GSEA gene set HALLMARK_ALLOGRAFT_REJECTION
[3] = B16 cells, GSEA gene set HALLMARK_ANDROGEN_RESPONSE
[4] = B16 cells, GSEA gene set HALLMARK_APICAL_JUNCTION
[5] = B16 cells, GSEA gene set HALLMARK_APICAL_SURFACE
[6] = B16 cells, GSEA gene set HALLMARK_APOPTOSIS
[7] = B16 cells, GSEA gene set HALLMARK_BILE_ACID_METABOLISM
[8] = B16 cells, GSEA gene set HALLMARK_CHOLESTEROL_HOMEOSTASIS
[9] = B16 cells, GSEA gene set HALLMARK_COAGULATION
[10] = B16 cells, GSEA gene set HALLMARK_COMPLEMENT
[11] = B16 cells, GSEA gene set HALLMARK_DNA_REPAIR
[12] = B16 cells, GSEA gene set HALLMARK_E2F_TARGETS
[13] = B16 cells, GSEA gene set HALLMARK_EPITHELIAL_MESENCHYMAL_TRANSITION
[14] = B16 cells, GSEA gene set HALLMARK_ESTROGEN_RESPONSE_EARLY
[15] = B16 cells, GSEA gene set HALLMARK_ESTROGEN_RESPONSE_LATE
[16] = B16 cells, GSEA gene set HALLMARK_FATTY_ACID_METABOLISM
[17] = B16 cells, GSEA gene set HALLMARK_G2M_CHECKPOINT
[18] = B16 cells, GSEA gene set HALLMARK_GLYCOLYSIS
[19] = B16 cells, GSEA gene set HALLMARK_HEDGEHOG_SIGNALING
[20] = B16 cells, GSEA gene set HALLMARK_HEME_METABOLISM
[21] = B16 cells, GSEA gene set HALLMARK_HYPOXIA
[22] = B16 cells, GSEA gene set HALLMARK_IL2_STAT5_SIGNALING
[23] = B16 cells, GSEA gene set HALLMARK_IL6_JAK_STAT3_SIGNALING
[24] = B16 cells, GSEA gene set HALLMARK_INFLAMMATORY_RESPONSE
[25] = B16 cells, GSEA gene set HALLMARK_INTERFERON_ALPHA_RESPONSE
[26] = B16 cells, GSEA gene set HALLMARK_INTERFERON_GAMMA_RESPONSE
[27] = B16 cells, GSEA gene set HALLMARK_KRAS_SIGNALING_DN
[28] = B16 cells, GSEA gene set HALLMARK_KRAS_SIGNALING_UP
[29] = B16 cells, GSEA gene set HALLMARK_MITOTIC_SPINDLE
[30] = B16 cells, GSEA gene set HALLMARK_MTORC1_SIGNALING
[31] = B16 cells, GSEA gene set HALLMARK_MYC_TARGETS_V1
[32] = B16 cells, GSEA gene set HALLMARK_MYC_TARGETS_V2
[33] = B16 cells, GSEA gene set HALLMARK_MYOGENESIS
[34] = B16 cells, GSEA gene set HALLMARK_NOTCH_SIGNALING
[35] = B16 cells, GSEA gene set HALLMARK_OXIDATIVE_PHOSPHORYLATION
[36] = B16 cells, GSEA gene set HALLMARK_P53_PATHWAY

`COc1cc(N)cc2c1nc(C(F)F)n2-c1nc(N2CCCOCC2)nc(N2CCOCC2)n1` [KTC1101, 2-(difluoromethyl)-4-methoxy-1-(4-morpholino-6-(1,4-oxazepan-4-yl)-1,3,5-triazin-2-yl)-1H-benzo[d]imidazol-6-amine] was tested, and the “NES, mmu05152 Tuberculosis” value was -0.8664, the “NES, mmu05164 Influenza A” value was 0.7158 and the “NES, mmu05169 Epstein-Barr virus infection” value was 0.9901. For the same molecule, the “enrichmentScore, mmu05152 Tuberculosis” value was -0.1994, the “enrichmentScore, mmu05164 Influenza A” value was 0.2008 and the “enrichmentScore, mmu05169 Epstein-Barr virus infection” value was 0.2613. The “immune pathways TNFα signaling via NF-κB, inflammatory response, chemokine signaling, cytokine-cytokine receptor interaction, IL-2-STAT5 (GSEA)” value (B16 cells, 0.04 and 0.2 μM, 48 h) was “significantly upregulated at both tested concentrations”, the NES [1] was -1.91 and the enrichmentScore [1] was -0.3889. It also gave an NES [2] of 1.691, an enrichmentScore [2] of 0.4865 and an NES [3] of 0.8627. For the same molecule, the enrichmentScore [3] was 0.2417, the NES [4] was 1.3836 and the enrichmentScore [4] was 0.3738. The NES [5] was -2.057, the enrichmentScore [5] was -0.6354 and the NES [6] was 0.9502. The enrichmentScore [6] was 0.2533, the NES [7] was -0.7889 and the enrichmentScore [7] was -0.209. It also gave an NES [8] of -2.882, an enrichmentScore [8] of -0.7203 and an NES [9] of 2.055. For the same molecule, the enrichmentScore [9] was 0.594, the NES [10] was 1.839 and the enrichmentScore [10] was 0.5017. For the same molecule, the NES [11] was -0.6206, the enrichmentScore [11] was -0.1386 and the NES [12] was -2.092. For the same molecule, the enrichmentScore [12] was -0.4182, the NES [13] was 1.653 and the enrichmentScore [13] was 0.443. It also gave an NES [14] of 1.194, an enrichmentScore [14] of 0.32 and an NES [15] of -1.354. It also gave an enrichmentScore [15] of -0.2968, an NES [16] of -1.5293 and an enrichmentScore [16] of -0.3352. The NES [17] was -1.723, the enrichmentScore [17] was -0.3452 and the NES [18] was -3.021. The enrichmentScore [18] was -0.6285, the NES [19] was -1.553 and the enrichmentScore [19] was -0.4866. The NES [20] was -0.8539, the enrichmentScore [20] was -0.1842 and the NES [21] was -1.667. The enrichmentScore [21] was -0.3411, the NES [22] was 1.6961 and the enrichmentScore [22] was 0.4531. The NES [23] was 1.437, the enrichmentScore [23] was 0.4564 and the NES [24] was 1.614. For the same molecule, the enrichmentScore [24] was 0.4471, the NES [25] was -0.8696 and the enrichmentScore [25] was -0.2269. For the same molecule, the NES [26] was 1.08, the enrichmentScore [26] was 0.2921 and the NES [27] was 1.399. For the same molecule, the enrichmentScore [27] was 0.4365, the NES [28] was 2.0673 and the enrichmentScore [28] was 0.5585. The NES [29] was -1.3285, the enrichmentScore [29] was -0.2672 and the NES [30] was -3.5229. The enrichmentScore [30] was -0.6921, the NES [31] was -0.8926 and the enrichmentScore [31] was -0.1781. For the same molecule, the NES [32] was -0.5144, the enrichmentScore [32] was -0.1367 and the NES [33] was 1.795. The enrichmentScore [33] was 0.4818, the NES [34] was 1.2511 and the enrichmentScore [34] was 0.4419. For the same molecule, the NES [35] was -2.275, the enrichmentScore [35] was -0.46 and the NES [36] was -1.372. It also gave an enrichmentScore [36] of -0.2855 and an NES (B16 cells, GSEA gene set HALLMARK_PEROXISOME) of -1.588.
